Source: US10434077B2, “Glycolic acid and/or D-lactic acid for the treatment of neurodegenerative diseases” (MAX-PLANCK-GESELLSCHAFT ZUR FOERDERUNG DER WISSENSCHAFTEN …, priority 2014, dated 2019)
Entries after “also recorded” stand apart in the source; their conditions may differ. Structures can show the parent of a compound that is named as a salt. Where two headings read alike, the source gives them in different places.

Experiments:
DJ-1 RNAi HeLa cells [1] = experiment: Mitotic rounding pressure of DJ-1 RNAi HeLa cells (AFM microcantilever); type: cell-based, human; details: for rescue of the reduced rounding pressure of mitotic DJ-1 RNAi cells: HeLa, substance added to medium, concentration not given
Description: (§1) HeLa-Kyoto cells stably expressing histone H2B-EGFP and mCherry-CAAX (clone 2B4), their parental cells, and HeLa-Kyoto expressing mouse DJ-1 transgene were used. Also, mouse embryonic fibroblast (MEF) (Pham et al., 2010) cells were used. Cells were maintained in DMEM supplemented with 10% fetal bovine serum (FBS), 2 mM GlutaMAX, 100 unit/ml penicillin, 100 μg/ml streptomycin, plus additional antibiotics for the transgene (0.5 mg/ml Geneticin for H2B-EGFP and mouse DJ-1 BAC transgene; 0.5 pug/ml puromycin for mCherry-CAAX), at 37° C. in a 5% CO2 environment. The DMEM with high glucose (5 g/1) was used unless specifically mentioned (e.g. FIG. 14). For atomic force microscopy (AFM) measurements of mammalian cells, a CO2-independent medium containing 4 mM sodium bicarbonate and 20 mM HEPES Was used. HeLa Cells Were RNAi-transfected with 160 nM endoribonuclease-digested small interfering RNA (MISSION esiRNA, Sigma) using oligofectamine reagent (Invitrogen). Paraquat (PQ^2+) was added 24 hours after RNAI. Cells were assayed after 48 hours from RNAI.
(§2) Cell rounding pressure analysis with microcantilevers Cells were grown on a glass-base dish (FD35, World Precision Instruments) with a silicon spacer, which was prepared from μ-Chamber 12 well (ibidi), in the center. Medium was replaced with the CO2-independent medium, then the dish was mounted on the stage of a light microscope (AxioObserver Z1 or Axiovert200, Zeiss) equipped with a 20× objective (Plan Apochromat, NA=0.80). To measure the force of the mitotic cell, a tipless microcantilever (NSC12/CSC37-B with a nominal spring constant of 0.3 N/m, MikroMasch, Estonia) mounted on a glass block of the AFM head (NanoWizard I or II, JPK instruments, Berlin) was used. Setup and calibration were done before every experiment; see Stewart et al (Stewart at al., 2012) for the details of the procedures. In a quick force measurement illustrated in FIG. 5A, the cantilever was set at […] above the glass dish and moved over the mitotically arrested cells to measure the equilibrium force. Measuring the cellular force and pressure through mitosis was done as described (Stewart at al., 2012, Stewart at al., 2011). Otherwise the cell pressure and volume were measured in a constant-height assay, as illustrated in FIG. 5B: the cantilever was first set at 14 μm height and placed over a metaphase cell to record rounding force. The cantilever was then brought down to 8 μm height at 0.1 μmu/sec, to measure peak and equilibrium forces. The maximal cross-section area of the cell was measured from the DIC or mCherry-CAAX image to calculate cell pressure and volume. Calculation of cell pressure and volume, and the contact area to the Cantilever was done as described (Stewart et al., 2012; Stewart et al., 2011). In every experiment, RNAi penetrance was confirmed by lower pressure of MYH9 RNAI-treated cells (Toyoda at al., 2011).

DJ-1 RNAi HeLa cells [2] = type: cell-based, human; details: for rescue of the circular mitochondrial phenotype: paraquat-treated DJ-1 RNAi HeLa cells, supplements for 24 hours
Description: as §1
To film the osmotically challenged HeLa cells, a DeltaVision system (Applied Precision) was used, equipped with an Olympus IX-71 Inverted microscope and a 40× (UPIanApo, NA=1.00) objective. Time-lapse images were acquired at 1-min intervals except during osmotic shock treatment (equal volume of water for hypotonic shock; equal volume of the AFM medium containing 2.86% (w/v) xylose for hypertonic shock). Deconvolved and maximally projected images were analyzed manually on Image.J to annotate the radius and the volume of the round objects (i.e. mitotic cells), assuming that the cells were spherical (Stewart et al., 2011). To image mitochondria of HeLa cells, MitoTracker Red CMXRos was added at 150 nM and fixed with 3% (v/w) paraformaldehyde in PBS, 1 mM MgCl2, and 5 mM EGTA. Chromatin was counter-stained by 1 μg/ml Hoechst33342. They were imaged on the DeltaVision system using a 60× objective (PlanApo N, NA=1.42, Olympus), and deconvolved and maximally projected images were used for the analysis. Due to high background of MitoTracker in the center of the cell, mitochondria in a 15×15 um area in the periphery were manually annotated on Image.J software.

[3] = system: mitotic MEF cells (wild type and DJ-1 knock-out); experiment: Mitotic rounding pressure of mouse embryonic fibroblasts (AFM); type: cell-based; details: for rescue of the reduced rounding pressure of mitotic DJ-1-deficient MEFs: DJ-1 knock-out MEFs, concentration not given; for rescue of the lower pressure phenotype at 10 mM: mitotic DJ-1 KO MEF cells, measured after 1 hour; for rescue of the lower pressure phenotype at 10 mM / effect on pressure of mitotic WT MEFs (negative effects on cell mechanics): 10 mM supplement; for effect on pressure of mitotic WT MEFs (negative effects on cell mechanics): wild type MEFs
Description: as §1, §2

[4] = system: dopaminergic neurons from DJ-1 knock out mice; experiment: In vitro survival of primary dopaminergic (TH+) neurons, DJ-1 knock out; type: cell-based, mouse; details: DJ-1 KO/mutant; 3 mM glucose, 10 mM GA, 10 mM DL
Description: (§3) Briefly, brain mesencephalons from E14.5 C57JBL6 or DJ-1 embryos were dissected under the microscope and digested with Trypsin-EDTA (Sigma-Aldrich). The trypsin reaction was stopped by adding the basic medium (BM) containing Neurobasal A medium (Gibco), 1 mg/ml penicillin/streptomycin, 10% (v/v) fetal calf serum (Invitrogen) and 2 mM L-glutamine and cells were mechanically dissociated using a fire-polished Pasteur pipette. Medium was fully replaced by centrifuging for 5 min. at 1200 rpm, aspiring the supernatant and adding 8 ml of the fresh BM to the pellet. […] The same volume of medium containing the different treatment substances was added 4 hours after plating to obtain the following treatment concentrations: control, 3 mM glucose, 10 mM GA, 10 mMDL and 10 mM LL. 24 hours later ⅓ of the medium was replaced with fresh BM. On DIV3 (day-in-vitro-culture 3) half of the medium was replaced with B27 medium containing Neurobasal A medium, 1 mg/ml penicillin/streptomycin, 2 mM L-Glutamine (Sigma-Aldrich) and B-27 supplement (Life Technologies) and on DIV5 all medium was replaced by B27 medium.
(§4) Dopaminergic TH^+ neurons were observed using an inverted fluorescence microscope (Axiovert 200M, Zeiss) under a 10× objective (PlanApo, NA=0.45). The diameter of every well was scanned in two perpendicular directions (i.e. top to bottom and left to right) and total TH^+ neurons were counted for every well.

[5] = system: C. elegans ΔΔdjr double mutant and glod-4 single mutant larvae; type: in vivo
Description: (Brenner, 1974). […] All mutants were outcrossed at least twice.
Mitochondria staining was performed as previously described. Briefly, MitoTracker Deep Red or CMXROS (M22426, M7512, Life Technologies) were dissolved in DMSO at a concentration of 5 mM and kept at −20° C. as a stock solution. On the day of microscopy worms were incubated in a 1:1000 diluted MitoTracker for 45 min at room temperature. Worms were then paralyzed with 1 mM Levamizol (Sigma-Aldrich), placed on slides covered with a thin layer of NGM medium on top of which the coverslip (22×22 mm, Menzel-Glaser #1) was fixed using nail lack.
Microscopy images from live paralyzed worm larvae stained with MitoTracker were taken using a confocal microscope (LSM510, Zeiss, Germany). Samples were excited using a 514 (MitoTracker CMXRos) or a 647 (MitoTracker Deep Red) nm lasers and two channels, one BP505-550 or LP650 and the BF channel were used to acquire the images. Gain was maintained between 450 and 515 for all samples to ensure the detection of signal intensity differences.

[6] = system: C. elegans larvae (ΔΔdjr, glod-4)
Description: (A) The differential expression of djr-1.1, djr-1.2 and glod-4 was tested by RT-PCR in four replicates. […] (B) Length of the worms treated with PQ^2+. Bars and error bars show the mean and SD, respectively. […] Every strain was compared to its control at different PQ^2+ concentrations by two-way ANOVA followed by Tukey's honestly significant differences (HSD) test. (C) Worm larvae treated with PQ or control. Scale bar, 250 μm. (D) survival of the worm larvae treated with 200 μM paraquat and 1 mM of the Indicated supplements. Bars and error bars show the mean and SD, respectively. […] Every strain was compared to its own control by two-way ANOVA followed by Tukey's HSD test. Data were normalized by Freeman-Tukey's double arcsine transformation prior to ANOVA. *p<0.05; **p<0.01; ***p<0.001.
All C. elegans strains were maintained on NGM agar plates seeded with Escherichia coli NA22 at 15° C. […] Mutant strains djr-1.1(tm918), djr-1.2(tm951) and glod4(tm1266) were obtained from National Bioresource Project, Japan. Wild type (N2) and daf-2 mutant strains were obtained from Caenorhabditis Genetics Center, USA. All mutants were outcrossed at least twice. DJ-1 double mutant djr-1.1(tm918), djr-1.2(tm951), abbreviated as ΔΔdjr, was achieved by crossing both single mutants. This strain was then further crossed to daf-2 to generate daf-2; ΔΔdjr triple mutant.

[7] = system: primary mesencephalic dopaminergic neurons from wild type mouse embryos; experiment: In vitro survival of primary dopaminergic (TH+) neurons, wild type; type: cell-based; details: 3 mM glucose, 10 mM GA, 10 mM DL, 10 mM LL, TH+ cells relative to no supplement
Description: as §3, §4

[8] = system: DJ-1 GLO1 double RNAi-treated cells; experiment: Mitotic rounding pressure of DJ-1 GLO1 double RNAi-treated cells (AFM); type: cell-based, human; details: both glyoxalases DJ-1 and GLO1 knocked down
Description: as §1, with “HeLa Cells Were RNAi-transfected with 160 nM endoribonuclease-digested small interfering RNA (MISSION esiRNA, Sigma) using oligofectamine reagent (Invitrogen). Paraquat (PQ^2+) was added 24 hours after RNAI. Cells were assayed after 48 hours from RNAI.” left out
Cell rounding pressure analysis with microcantilevers Cells were grown on a glass-base dish (FD35, World Precision Instruments) with a silicon spacer, which was prepared from μ-Chamber 12 well (ibidi), in the center. […] Otherwise the cell pressure and volume were measured in a constant-height assay, as illustrated in FIG. 5B: the cantilever was first set at 14 μm height and placed over a metaphase cell to record rounding force. […] The maximal cross-section area of the cell was measured from the DIC or mCherry-CAAX image to calculate cell pressure and volume. […]

O=C(O)CO [GA, 2-hydroxyethanoic acid]
rescue of the lower pressure phenotype in low or no glucose medium (DJ-1 RNAi HeLa cells [1]; HeLa kept 2 or more passages in low or no glucose medium before RNAi, measured 1 hour after addition): rescue of the lower pressure phenotype was observed | rescue of the reduced rounding pressure of mitotic DJ-1 RNAi cells (DJ-1 RNAi HeLa cells [1]): could rescue the reduced pressure | rescue of the lower pressure phenotype at 10 mM (DJ-1 RNAi HeLa cells [1]; RNAi-treated mitotic HeLa cells, 10 mM supplement, measured after 1 hour): rescued the lower pressure phenotype | rescue of the circular mitochondrial phenotype (DJ-1 RNAi HeLa cells [2]): rescued | rescue of the circular mitochondrial phenotype (DJ-1 RNAi HeLa cells [2]; listed as glycolate): rescue mitochondria structure | rescue of the reduced rounding pressure of mitotic DJ-1-deficient MEFs [3]: could rescue the reduced pressure | rescue of the lower pressure phenotype at 10 mM [3]: rescued the lower pressure phenotype | effect on pressure of mitotic WT MEFs (negative effects on cell mechanics) [3]: decreases pressure | survival of dopaminergic neurons from DJ-1 knock out mice [4]: could stimulate neuronal survival; also recorded: stimulate the survival | reversal of circular mitochondria and diminished MitoTracker staining ([5]; paraquat-treated ΔΔdjr double mutant and glod-4 single mutant larvae): reversed | restoration of viability of ΔΔdjr mutant larvae ([6]; in vivo): restored | in vitro survival of dopaminergic (TH+) neurons [7]: stimulated; also recorded: stimulate the survival | in vitro survival of dopaminergic (TH+) neurons ([7]; listed as Glycolate): support viability | rescue of the pressure phenotype in DJ-1 and GLO1 double knock-down cells [8]: could rescue

CC(=O)C(=O)O [pyruvate, 2-oxopropanoic acid salt, reference compound]
rescue of the reduced rounding pressure of mitotic DJ-1 RNAi cells (DJ-1 RNAi HeLa cells [1]): neither pyruvate, which is produced from glucose, nor glutamine, which can enter the Krebs cycle, rescued the DJ-1 pressure phenotype | rescue of the circular mitochondrial phenotype (DJ-1 RNAi HeLa cells [2]): cannot rescue the circular phenotype

C[C@H](O)C(=O)O [LL, L-(+)-lactic acid, reference compound]
rescue of the reduced rounding pressure of mitotic DJ-1 RNAi cells (DJ-1 RNAi HeLa cells [1]): had no effect | rescue of the reduced rounding pressure of mitotic DJ-1-deficient MEFs [3]: had no effect | rescue of the lower pressure phenotype at 10 mM [3]: but not LL, rescued the lower pressure phenotype | effect on pressure of mitotic WT MEFs (negative effects on cell mechanics) [3]: decreases pressure

NC(=O)c1ccc(N)nc1 [6-aminonicotinamide, reference compound]
effect on the glucose-mediated rescue of pressure in DJ-1 RNAi cells (DJ-1 RNAi HeLa cells [1]; mitotic HeLa, measured after 1 hour): inhibited

NC(=O)CC[C@H](N)C(=O)O [glutamine, reference compound]
rescue of the reduced rounding pressure of mitotic DJ-1 RNAi cells (DJ-1 RNAi HeLa cells [1]): neither pyruvate, which is produced from glucose, nor glutamine, which can enter the Krebs cycle, rescued the DJ-1 pressure phenotype

C[n+]1ccc(-c2cc[n+](C)cc2)cc1 [paraquat, reference compound]
effect of paraquat on mitochondrial structure (DJ-1 RNAi HeLa cells [2]; low doses of paraquat, DJ-1 RNAi HeLa cells): disrupted mitochondrial structure | effect of paraquat on mitochondria of worm larvae ([5]; reproductive larvae of C. elegans): disrupted mitochondria | effect of paraquat on viability of glod-4 mutant larvae ([6]; glod-4, 200 μM paraquat): not affected | effect of paraquat on viability of ΔΔdjr mutant larvae ([6]; ΔΔdjr, 200 μM paraquat): decreased viability
